Reference: patent US12157882B2, “Lactobacillus plantarum strain ATG-K2, ATG-K6 or ATG-K8, and composition for preventing or treating vaginitis comprising same” (ATOGEN CO., LTD, priority 2018, dated 2024)

Assays:
[1] = Ability to produce hydrogen peroxide (tetramethylbenzidine MRS agar); conditions: anaerobic, 37° C., about 48-72 hr, color change after exposure to air
Experimental: For the ability to produce hydrogen peroxide as the function of each of the lactic-acid bacteria, an agar medium was prepared by adding 0.25 mg/ml of tetramethylbenzidine (Sigma-Aldrich, Germany) and […] to MRS (McGroarty et al., 1992). Here, the additives were added at about 50° C. after autoclaving of the MRS agar. Each of the lactic-acid bacteria was inoculated into the completely hardened test agar medium, placed in an anaerobic jar, and cultured at 37° C. for about 48-72 hr. After culture, the lactic-acid bacteria were taken out of the anaerobic jar and exposed to air, and the colony and the surrounding color change were observed.

[2] = tested on: Listeria monocytogenes KCTC3569 (LM); assay: Disc test, clear zone; type: cell-based; conditions: 35 μl culture solution on 8 mm paper disc, disc diameter subtracted; average of four tests
Experimental: (§1) In order to confirm the antimicrobial functionality of K2, K6 and K8, the antimicrobial activity of lactic-acid bacteria K2, K6 and K8 against a total of seven types of infectious or opportunistic bacteria, including four types of gram-positive SA, LM, SM, and SS and three types of gram-negative EC, PA, and CS, was determined by measuring clear zones through a disc test. Seven types of bacteria cultured overnight in a BHI plate medium were each suspended in 1× phosphate-buffered saline (PBS) until OD600 of about 0.8 was obtained. Each suspension was absorbed with a sterile cotton swab, spread over an agar medium for an antimicrobial activity test for lactic-acid bacteria, in which BHI and MRS were mixed at a ratio of 1:1, and dried for about 3 min. Each 8 mm paper disc (Advantec, Japan) was attached to the dried test agar medium, and 35 μl of each of K2, K6, and K8 solutions cultured in an MRS broth for about 18 to 20 hr was inoculated to the paper disc, dried for about 3 min, cultured at 37° C. and observed. The size of the clear zone formed after culture was determined in a manner in which the diameter thereof was measured and was calculated after subtracting 8 mm, which is the diameter of the paper disc. The unit for the diameter of the clear zone, which is each numerical value in Table 4, is mm, and each abbreviation is as follows: Staphylococcus aureus KCTC1621 (SA), Listeria monocytogenes KCTC3569 (LM), Streptococcus mutans KCTC3065 (SM), Streptococcus salivarius ATG-P1 (SS), Escherichia coli KCTC1682 (EC), Pseudomonas aeruginosa KCTC2004 (PA), Cronobacter sakazakii KCTC2949 (CS).

[3] = tested on: Streptococcus salivarius ATG-P1 (SS); assay: Disc test, clear zone; type: cell-based; conditions: 35 μl culture solution on 8 mm paper disc, disc diameter subtracted; average of four tests
Experimental: as §1

[4] = tested on: Escherichia coli KCTC1682 (EC); assay: Disc test, clear zone; type: cell-based; conditions: 35 μl culture solution on 8 mm paper disc, disc diameter subtracted; average of four tests
Experimental: as §1

[5] = tested on: Cronobacter sakazakii KCTC2949 (CS); assay: Disc test, clear zone; type: cell-based; conditions: 35 μl culture solution on 8 mm paper disc, disc diameter subtracted; average of four tests
Experimental: as §1

[6] = tested on: Staphylococcus aureus KCTC1621 (SA); assay: Disc test, clear zone; type: cell-based; conditions: 35 μl culture solution on 8 mm paper disc, disc diameter subtracted; average of four tests
Experimental: as §1

[7] = tested on: Streptococcus mutans KCTC3065 (SM); assay: Disc test, clear zone; type: cell-based; conditions: 35 μl culture solution on 8 mm paper disc, disc diameter subtracted; average of four tests
Experimental: as §1

[8] = tested on: Pseudomonas aeruginosa KCTC2004 (PA); assay: Disc test, clear zone; type: cell-based; conditions: 35 μl culture solution on 8 mm paper disc, disc diameter subtracted; average of four tests
Experimental: as §1

[9] = tested on: Gardnerella vaginalis KCTC5096 (GV); assay: Disinfection power through coculture; type: cell-based; conditions: coculture 1:1, at 24 hr
Experimental: (§2) The anti-vaginitis effect of the lactic-acid bacteria of the present disclosure was tested for disinfection power on the vaginitis pathogen through coculture. In the anti-CA experiment, CA at a concentration of about 2.5×10^6 CFU/ml and each of lactic-acid bacteria at a concentration of about 2.5×10^6 CFU/ml were mixed at a ratio of 1:1, and coculture thereof was carried out in a culture medium of YM and MRS mixed at 1:1. In the anti-GV experiment, GV at a concentration of about 1.0×10^8 CFU/ml and each of lactic-acid bacteria at a concentration of about 1.0×10^8 CFU/ml were mixed at a ratio of 1:1 and then inoculated into a 10% horse-serum BHI broth. Each coculture experiment was conducted for 48 hr, and portions of the samples were collected initially and every 24 hr, and a viable cell count was taken through a serial dilution method and a plate-spreading method. In the anti-CA experiment, in order to measure CA alone, a YM plate medium containing ampicillin at a concentration of 100 μg/ml was used. In the anti-GV experiment, CFU was measured by distinguishing the colony forms between GV and lactic-acid bacteria using a 5% rabbit blood BHI plate medium.

[10] = tested on: Candida albicans KCTC7678 (CA); assay: Disinfection power through coculture; type: cell-based; conditions: for disinfection power on CA: coculture 1:1, at 24 hr; for CA in coculture: coculture 1:1, at 48 hr
Experimental: as §2

[11] = tested on: TNF-α in mouse macrophage cell line RAW264.7; assay: TNF-α ELISA, RAW264.7 cells treated with lactic-acid bacteria lysate; type: cell-based; conditions: lysate 100 μg/ml and 500 μg/ml, 24 hr
Experimental: (§3) In order to measure the immunological effects of K2, K6 and K8 lactic-acid bacteria, a cytokine quantification experiment using cells was performed. The cells that were used were a mouse macrophage cell line RAW264.7, and the medium used for each cell experiment was a Gibco® Dulbecco's Modified Eagle Medium (DMEM, Gibco, USA) supplemented with 10% fetal bovine serum (Gibco, USA) and 1% penicillin/streptomycin cocktail (Sigma-Aldrich, Germany). RAW264.7 cells cultured at about 80-90% confluency before material treatment were recovered and seeded in an amount of 1×10^6 cells per well of a 24-well plate. After seeding, culture was carried out in an environment of 37° C. and 5% CO2 for 24 hr in order to realize attachment to the 24-well plate and stabilization thereof. Each well was treated with the lactic-acid bacteria lysate at concentrations of 100 μg/ml and 500 μg/ml, and 1 μg/ml of lipopolysaccharide (LPS, Sigma-Aldrich, Germany) was used as a positive control, and an experimental group not treated with any material was used as a negative control. The cells were cultured at 37° C. and 5% CO2 for 24 hr after material treatment, and the cell culture solution was recovered, followed by enzyme-linked immunosorbent assay (ELISA) for IL-6 and TNF-α. Measurement was performed for IL-6 using a Mouse IL-6 Quantikine ELISA Kit (R&D systems, USA) and for TNF-α using a Mouse TNF-alpha Quantikine ELISA Kit (R&D systems, USA).

[12] = tested on: IL-6 in mouse macrophage cell line RAW264.7; assay: IL-6 ELISA, RAW264.7 cells treated with lactic-acid bacteria lysate; type: cell-based; conditions: lysate 100 μg/ml and 500 μg/ml, 24 hr
Experimental: as §3

| Substance | ability to produce hydrogen peroxide [1] | diameter of the clear zone LM [2] [mm] | diameter of the clear zone SS [3] [mm] | diameter of the clear zone EC [4] [mm] | diameter of the clear zone CS [5] [mm] | diameter of the clear zone SA [6] [mm] | diameter of the clear zone SM [7] [mm] | diameter of the clear zone PA [8] [mm] | disinfection power on GV [9] [%] | disinfection power on CA [10] [%] | CA in coculture [10] | TNF-α production compared to the control [11] | IL-6 production compared to the control [12] |
| --- | --- | --- | --- | --- | --- | --- | --- | --- | --- | --- | --- | --- | --- |
| Lactobacillus plantarum ATG-K6 [Lb. plantarum ATG-K6] | produced hydrogen peroxide | 4.75 ± 0.13 | 3.13 ± 0.11 | 3.50 ± 0.18 | 6.13 ± 0.11 | 4.88 ± 0.21 | 4.13 ± 0.11 | 4.00 ± 0.18 | 92.50 | 99.49 | completely disappeared | induced | induced |
| Lactobacillus plantarum ATG-K2 [Lb. plantarum ATG-K2] | produced hydrogen peroxide | 5.50 ± 0.18 | 4.13 ± 0.11 | 3.38 ± 0.21 | 6.50 ± 0.18 | 5.00 ± 0.18 | 4.75 ± 0.28 | 3.75 ± 0.13 | 87.37 | 99.03 | completely disappeared | induced | induced |
| Lactobacillus plantarum ATG-K8 [Lb. plantarum ATG-K8] | produced hydrogen peroxide | 5.18 ± 0.21 | 4.00 ± 0.18 | 3.50 ± 0.18 | 5.88 ± 0.11 | 4.25 ± 0.13 | 3.88 ± 0.11 | 3.88 ± 0.11 | 93.71 | 99.53 | completely disappeared | induced | induced |
